Columns and labels:
[1] = target: T1, cannabinoid receptor 1 (CNR1) (Homo sapiens, UniProt P21554); experiment: CB1 receptor agonist assay (cAMP Hunter eXpress, CNR1 CHO-K1); type: cell-based; settings: Forskolin-stimulated CNR1 CHO-K1
T1 construct: host or cells: CHO-K1
Procedure: (§1) The assays were performed in cAMP Hunter eXpress cells engineered to overexpress naturally Gi/Go-coupled wildtype cannabinoid receptor 1 (CNR1) or cannabinoid receptor 2 (CNR2) in CHO-K1 cell type. In these cells, CB1 and/or CB2 agonists inhibit production of intracellular cAMP in response to stimulation with Forskolin. cAMP levels are determined using luminogenic detection reagents provided with the Hunter eXpress cAMP detection kit.
(§2) • Assay ready CNR1 CHO-K1 cells were obtained from Eurofins/Discover X, cat #95-0071E2 • Assay ready CNR2 CHO-K1 cells were obtained from Eurofins/Discover X, cat #95-0183E2 • Hunter eXpress cAMP detection kit was also from Discover X. The kit includes all cAMP detection reagents, Forskolin, complete cell plating medium and cell assay buffer.
(§3) The Assay-Ready CNR1 CHO-K1 or CNR2 CHO-K1 cells were thawed and re-suspended in pre-warmed Assay Complete plating medium and inoculated into 96well plate at a density of 30,000 cells in 100 μL. The plates with cells were incubated for 24 h at 37° C. in 5% CO2. […] The cells were stimulated with the Forskolin/compound buffer for 30 min. […] The plate was read on Biotek Synergy Neo2 reader in luminescent mode. […] Relative luminescence units (RLUs) were plotted against compound concentration to determine apparent EC50 values of the agonist compounds.

[2] = target: T2, cannabinoid receptor 2 (CNR2) (Homo sapiens, UniProt P34972); experiment: CB2 receptor agonist assay (cAMP Hunter eXpress, CNR2 CHO-K1); type: cell-based
T2 construct: host or cells: CHO-K1
T2 sequence (P34972 whole entry): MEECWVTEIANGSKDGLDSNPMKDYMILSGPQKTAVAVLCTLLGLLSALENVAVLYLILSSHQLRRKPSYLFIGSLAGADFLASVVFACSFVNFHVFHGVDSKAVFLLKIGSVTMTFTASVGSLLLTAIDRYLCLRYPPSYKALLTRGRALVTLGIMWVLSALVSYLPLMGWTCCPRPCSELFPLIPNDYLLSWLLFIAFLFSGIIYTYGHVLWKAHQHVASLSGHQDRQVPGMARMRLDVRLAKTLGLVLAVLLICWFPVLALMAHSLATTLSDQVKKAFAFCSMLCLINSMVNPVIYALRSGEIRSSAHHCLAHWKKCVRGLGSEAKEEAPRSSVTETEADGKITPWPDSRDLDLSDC
Procedure: as §1, §2, §3

in vitro = settings: human
Procedure: The half maximal inhibition concentration (IC50) for each compound was determined by harvesting cells during the logarithmic growth period and then counting cell number using hemocytometer. […] Then, using a Biomek FX, test articles were serially diluted (10 mM top, 3× dilution intervals) along with a reference inhibitor (1 mM top, 3× dilution intervals) in acoustic grade Labcyte plate. Then, using an acoustic dispenser (Labcyte550), compounds were added as serially diluted to plate with cells: 90 nL of serially diluted compounds per well. 90 nL DMSO is added to control wells. Test plates were incubated for 72 h in the humidified incubator at 37° C. with 5% CO2. 25 μL of reconstituted Cell titer Glo reagent was added to each well. Each test plate was then incubated for 20 min at room temperature. Luminescence was then recorded using Synergy Neo2Multi-mode Reader.
In order to calculate intersect IC50, a dose-response curve was fitted using nonlinear regression model with a sigmoidal dose response.
The formula for calculating surviving rate is shown below, and the intersect IC50 was calculated according to the dose-response curve generated by the software:
The compounds of interest were assessed cell viability in the HL-60 acute promyelocytic leukemia cell line (ATCC® CCL-240). […] Culture medium were purchased from ATCC, USA.

[3] = SK-MEL-28 cell line toxicity (Cell titer Glo viability); type: cell-based; settings: human, SK-MEL-28 melanoma cells, 72 h
Procedure: (§4) Culture medium were purchased from ATCC, USA.
(§5) 90 nL DMSO is added to control wells. […] Luminescence was then recorded using Synergy Neo2Multi-mode Reader.

[4] = test system: SK-MEL-28 melanoma cell line; experiment: as above; type: cell-based; settings: Homo sapiens, SK-MEL-28, 72 h
Procedure: as §4, §5

[5] = PC3 cell line toxicity (Cell titer Glo viability); type: cell-based; settings: human, PC3 prostate adenocarcinoma cells, 72 h
Procedure: as §5, §4

[6] = test system: PC3 prostate adenocarcinoma cell line; experiment: PC3 cell line toxicity (Cell titer Glo viability); type: cell-based; settings: Homo sapiens, PC-3; PC3, 72 h
Procedure: as §5, §4

T1 sequence (P21554 whole entry): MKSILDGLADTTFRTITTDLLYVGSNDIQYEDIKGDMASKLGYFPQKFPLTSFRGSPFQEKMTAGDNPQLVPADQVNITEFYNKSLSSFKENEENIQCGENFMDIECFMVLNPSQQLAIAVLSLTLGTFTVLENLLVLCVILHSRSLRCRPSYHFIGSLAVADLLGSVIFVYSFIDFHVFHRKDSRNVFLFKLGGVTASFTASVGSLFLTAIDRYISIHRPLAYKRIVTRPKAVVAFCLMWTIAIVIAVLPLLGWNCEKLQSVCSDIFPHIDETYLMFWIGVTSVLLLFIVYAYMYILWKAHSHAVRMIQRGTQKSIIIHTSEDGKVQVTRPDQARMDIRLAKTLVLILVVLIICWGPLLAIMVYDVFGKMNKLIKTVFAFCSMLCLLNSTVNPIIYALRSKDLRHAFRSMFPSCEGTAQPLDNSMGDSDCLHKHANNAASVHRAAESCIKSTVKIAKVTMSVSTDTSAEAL

With `CCCCCc1cc(O)c2c(c1)OC(C)(C)C1CCC(CO)=CC21` (centres unmarked) [11-hydroxy-THC] the EC50 [1] was 1 nM, the EC50 ([2]; agonist, cAMP, Forskolin-stimulated CNR2 CHO-K1) was 51 nM and the “Selectivity for CB2 over CB1” value ([2]; ratio of EC50 values) was 0.02 fold.

In the case of `CN[C@@H]1C[C@H]2O[C@@](C)([C@@H]1OC)n1c3ccccc3c3c4c(c5c6ccccc6n2c5c31)C(=O)NC4` [Staurosporine, staurosporine, reference compound], the viability at 0.00017 µM (in vitro) is reported as 98.3%, the viability at 0.00051 µM (in vitro) is reported as 96.5% and the viability at 0.0015 µM (in vitro) is reported as 98.3%. The viability at 0.0046 µM (in vitro) was 90.4%, the viability at 0.014 µM (in vitro) was 66.6% and the viability at 0.041 µM (in vitro) was 36.3%. For the same molecule, the viability at 0.12 µM (in vitro) was 27.7%, the viability at 0.37 µM (in vitro) was 18.7% and the viability at 1.1 µM (in vitro) was 13.9%. The viability at 3.3 µM (in vitro) was 11.7%, the viability at 10 µM (in vitro) was 10.4% and the viability at 30 µM (in vitro) was 9.6%. The viability at 72 h, 0.00017 µM ([3]; SK-MEL-28, 0.00017 uM) was 96.2%, the viability at 72 h, 0.00051 µM ([3]; SK-MEL-28, 0.00051 uM) was 94.9% and the viability at 72 h, 0.0015 µM ([3]; SK-MEL-28, 0.0015 uM) was 96.7%. For the same molecule, the viability at 72 h, 0.0046 µM ([3]; SK-MEL-28, 0.0046 uM) was 94.1%, the viability at 72 h, 0.014 µM ([3]; SK-MEL-28, 0.014 uM) was 92.9% and the viability at 72 h, 0.041 µM ([3]; SK-MEL-28, 0.041 uM) was 70%. It also gave a viability at 72 h, 0.12 µM ([3]; SK-MEL-28, 0.12 uM) of 53.9%, a viability at 72 h, 0.37 µM ([3]; SK-MEL-28, 0.37 uM) of 41.1% and a viability at 72 h, 1.1 µM ([3]; SK-MEL-28, 1.1 uM) of 33%. For the same molecule, the viability at 72 h, 3.3 µM ([3]; SK-MEL-28, 3.3 uM) was 17.3%, the viability at 72 h, 10 µM ([3]; SK-MEL-28, 10 uM) was 8.55% and the viability at 72 h, 30 µM ([3]; SK-MEL-28, 30 uM) was 8.85%. The IC50 [4] was about 210 nM, the viability at 72 h, 0.00017 µM ([5]; PC3, 0.00017 uM) was 102% and the viability at 72 h, 0.00051 µM ([5]; PC3, 0.00051 uM) was 92.2%. It also gave a viability at 72 h, 0.0015 µM ([5]; PC3, 0.0015 uM) of 67.1%, a viability at 72 h, 0.0046 µM ([5]; PC3, 0.0046 uM) of 43.2% and a viability at 72 h, 0.014 µM ([5]; PC3, 0.014 uM) of 34.5%. For the same molecule, the viability at 72 h, 0.041 µM ([5]; PC3, 0.041 uM) was 12.7%, the viability at 72 h, 0.12 µM ([5]; PC3, 0.12 uM) was 10.3% and the viability at 72 h, 0.37 µM ([5]; PC3, 0.37 uM) was 9.5%. The viability at 72 h, 1.1 µM ([5]; PC3, 1.1 uM) was 8.4%, the viability at 72 h, 3.3 µM ([5]; PC3, 3.3 uM) was 8.1% and the viability at 72 h, 10 µM ([5]; PC3, 10 uM) was 6.8%. It also gave a viability at 72 h, 30 µM ([5]; PC3, 30 uM) of 7.1% and an IC50 [6] of about 4 nM.

Source: patent publication US20250057859A1, “CANNABICHROMENEQUINONE AND ANALOGUES THEREOF, AND METHOD OF USING COMPOSITIONS THEREOF AS ANTI-INFLAMMATORY AGENTS” (Juva Life, Inc., priority 2021, published 2025)
